Data as given in patent US6033823A, “Mutated penicillin G acylase genes” (priority 1994, dated 2000).
Numbering of substitutions follows the chain as printed.

Columns and labels:
[1] = molecular target: T1, Alcaligenes faecalis Penicillin G acylase mutant B:L56G (Alcaligenes faecalis, UniProt O34142, L321G); experiment: NIPAB kinetics and phenylacetic acid product inhibition, mutant B:L56G; type: biochemical; conditions: from progress curves of NIPAB deacylation, 25° C., 0.1 M NaH2PO4.H2O buffer pH 7.5, read-out: Ki Phenylacetic acid (inhibition constant, dissociation constant)
T1 construct: alpha 202 aa, beta 551 aa; recombinant, E. coli host
T1 sequence (O34142 27-228): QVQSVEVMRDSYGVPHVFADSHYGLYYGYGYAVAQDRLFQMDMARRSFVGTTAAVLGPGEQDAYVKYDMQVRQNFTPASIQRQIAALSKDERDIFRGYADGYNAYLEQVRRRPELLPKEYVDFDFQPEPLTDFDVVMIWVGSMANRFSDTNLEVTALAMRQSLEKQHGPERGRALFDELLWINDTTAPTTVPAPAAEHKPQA
T1 sequence (O34142 266-816 L321G): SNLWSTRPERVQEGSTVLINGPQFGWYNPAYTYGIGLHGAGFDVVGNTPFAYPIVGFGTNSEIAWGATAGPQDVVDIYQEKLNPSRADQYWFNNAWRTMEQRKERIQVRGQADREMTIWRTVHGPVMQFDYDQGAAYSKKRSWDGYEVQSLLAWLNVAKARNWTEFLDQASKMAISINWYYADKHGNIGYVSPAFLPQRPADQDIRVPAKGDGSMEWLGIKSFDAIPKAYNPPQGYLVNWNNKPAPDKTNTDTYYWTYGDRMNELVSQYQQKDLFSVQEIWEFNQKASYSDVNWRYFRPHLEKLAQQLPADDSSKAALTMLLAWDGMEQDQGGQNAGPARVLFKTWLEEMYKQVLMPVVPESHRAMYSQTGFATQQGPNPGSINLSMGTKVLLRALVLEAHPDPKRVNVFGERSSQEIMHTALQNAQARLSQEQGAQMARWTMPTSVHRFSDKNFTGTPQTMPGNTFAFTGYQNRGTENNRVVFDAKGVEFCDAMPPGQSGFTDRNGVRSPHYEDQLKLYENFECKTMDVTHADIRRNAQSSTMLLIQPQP
Method: In a continuous assay Penicillin G acylase was assayed spectro-fotometrically with the chromogenic substrate NIPAB [6-nitro-3-phenylacetamido-benzoic acid]. The liberation of 3-amino-6-nitrobenzoic acid was monitored by measuring the extinction at 405 nm in a Kontron 610 kinetic spectrofotometer. Measuring maximal rate, the assays were performed at 25° C. using 20 mM NaH2 PO4.H2 O at pH 7.5 with 20 mM NIPAB and 100 μl enzym solution (at a proper dilution). Initial rate measurements were performed with varying concentration of NIPAB.
Initial rate measurements were performed with excess substrate over the enzyme. Catalytic parameters were derived from least-squares fitting of the measured initial rates plotted for various substrate concentrations according to the Michaelis-Menten equation.
The complete conversion of NIPAB was followed as a funtion of time at 20, 50 and 100 μM NIPAB by following the increase in absorbtion at 405 nm. Products of this conversion are phenylacetic acid and 3-amino-6-nitrobenzoic acid. The conversion was performed at 25° C. in 0.1 M NaH2 PO4.H2 O buffer pH 7.5. The progress curves of the deacylation of NIPAB could be fitted very well when product inhibition by phenylacetic acid was taken into account. […]

[2] = molecular target: T2, Alcaligenes faecalis Penicillin G acylase mutant A:M143V (Alcaligenes faecalis, UniProt O34142, M169V); experiment: Deacylation kinetics and phenylacetic acid product inhibition, mutant A:M143V; type: biochemical; conditions: from progress curves of NIPAB deacylation, 25° C., 0.1 M NaH2PO4.H2O buffer pH 7.5, read-out: Ki Phenylacetic acid (inhibition constant, dissociation constant)
T2 construct: alpha 202 aa, beta 551 aa; recombinant, E. coli host
T2 sequence (O34142 27-228 M169V): T1 sequence (O34142 27-228) with M143V
T2 sequence (O34142 266-816): T1 sequence (O34142 266-816 L321G) with G56L
Method: In order to determine enzymatic activity the acylases were incubated with substrate at room temperature in buffered solution. In case β-lactamase impurity was expected to be present in the enzyme preparations, 1.0 mM -lactamase inhibitor 6-bromo-penicillanic acid was added to the assay. The reactions were stopped by adding an excess PMSF. For some mutants which were less sensitive to PMSF inhibition, the reactions were stopped by adding 0.5 M HCl or 0.5 M acetic acid until the pH was between 3 and 4. When reactions were subsequently analysed by HPLC, the reactions were stopped by dilution with the correponding elution solvent (see table 1). […]
The composition of the reaction mixtures was determined by high-performanceliquid chromatography (HPLC)(table 1). Concentrations were determined by using standards of known concentration.
In a continuous assay Penicillin G acylase was assayed spectro-fotometrically with the chromogenic substrate NIPAB [6-nitro-3-phenylacetamido-benzoic acid]. The liberation of 3-amino-6-nitrobenzoic acid was monitored by measuring the extinction at 405 nm in a Kontron 610 kinetic spectrofotometer. […]
Initial rate measurements were performed with excess substrate over the enzyme. Catalytic parameters were derived from least-squares fitting of the measured initial rates plotted for various substrate concentrations according to the Michaelis-Menten equation. […]

Structure (SMILES): O=C(O)Cc1ccccc1 [phenylacetic acid]
- Ki [1]: 55 µM
- Ki [2]: 74 µM
